Entries after “also recorded” stand apart in the source; their conditions may differ.
Experiments:
dnTGF-βRII mice = dnTGF-βRII mice 32-34 wk (late stage PBC model) treated 1 wk by osmotic minipump; assay type: in vivo, mouse; conditions: for intrahepatic bile duct mass (IBDM, CK-19): 1 wk minipump
Experimental: Briefly, we used wild-type (WT), dnTGFβRII 12 wk and dnTGFβRII 34 wk mice treated with control or SR antagonist (SCT 5-27) minipump (10 μg/kg/day) for 1 wk. Hepatic damage was shown by H&E. IBDM and cholangiocyte proliferation were measured by immunohistochemistry for CK-19 and Ki67, respectively. Biliary apoptosis was evaluated by TUNEL staining. Senescence was measured in cholangiocytes by immunofluorescence for CCL2 or p16 co-stained with CK-19 (to image bile ducts) and SA-β-Galactosidase activity. Hepatic fibrosis was assessed by qPCR for collagen-1a and α-SMA in total liver, and quantification of Sirius Red staining. Hepatic stellate cell (HSC) activation was evaluated by immunofluorescence (IF) for Syp-9. HSC senescence was evaluated by IF for CCL2 or p16 co-stained with desmin (to visualize HSCs). Secretin levels in serum and bile were measured by EIA. Bile and serum were obtained from human control, early PBC and advanced PBC patients, and secretin was evaluated by EIA.
All animal procedures were performed according to protocols approved by the Baylor Scott & White Health IACUC Committee. Transgenic mice expressing a dominant-negative form of the human transforming growth factor-beta receptor II (dnTGF-βRII) were obtained from Dr. M. Eric Gershwin at UC Davis Health (Sacramento, Calif.), and background-matched wild-type (WT, strain C57BL/6) mice were purchased from Charles River Laboratories (Wilmington, Mass.); the breeding colony is established in our animal facility. Animals were maintained in micro-isolator cages in a temperature-controlled environment with 12/12-hr light/dark cycles and fed ad libitum standard chow with free access to drinking water. Studies were performed in 12 wk-old WT mice, and 12 wk-old (mimic early stage PBC) and 32 wk-old (mimic late stage PBC) female and male dnTGF-βRII mice (25-30 gm) that were treated with either saline, secretin (Sct; 2.5 nmoles/kg body weight per day; Bachem, Torrance, Calif.) or the secretin receptor (SR) antagonist, Sec 5-27 (10 μg/kg body weight per day; Thermo Fisher Scientific, Waltham, Mass.) for 1 wk by intraperitoneally implanted osmotic minipump. Liver tissue samples and blocks (formalin-fixed, paraffin-embedded and OCT-embedded), serum, bile, cholangiocytes, and cholangiocyte supernatants (after incubation at 37° C. for 4 hr) were collected as described.
Hematoxylin and eosin (H&E) staining was performed in formalin-fixed, paraffin-embedded liver sections (4-5 μm, 3 samples from 3 different animals) to determine liver morphology. H&E stained liver sections were evaluated by a board-certified pathologist to assess the degree of lobular damage, hepatic necrosis and portal inflammation. At least 10 different portal areas were evaluated for each parameter. Liver sections were examined in a coded fashion by BX-51 light microscopy (Olympus, Tokyo, Japan) equipped with a camera (See, Mancinelli, R et al., Ischemia reperfusion of the hepatic artery induces the functional damage of large bile ducts by changes in the expression of angiogenic factors. Am J Physiol Gastrointest Liver Physiol 2015; 309:G865-873 (2015); Taffetani S et al., Prolactin stimulates the proliferation of normal female cholangiocytes by differential regulation of Ca2+-dependent PKC isoforms, BMC Physiol 7:6 (2007)).
Serum levels of alkaline phosphatase (ALP) and γ-glutamyltransferase (γGT) are commonly used to diagnose PBC (Heathcote, E J, Management of primary biliary cirrhosis. The American Association for the Study of Liver Diseases practice guidelines, Hepatology 31:1005-1013 (2000)); therefore, were measured serum levels of ALP and γGT in mouse serum samples using the Alkaline Phosphatase Assay Kit and γ-Glutamyltransferase Activity Colorimetric Assay Kit, respectively (Abcam; Cambridge, Mass.).
Early stage PBC is identified by cholangiocyte proliferation, whereas late stage PBC is characterized by ductopenia. […]

large IMCLs = experiment: Large IMCLs treated with secretin with/without LY2109761, or with TGF-β1 (Example 2); assay type: cell-based, mouse; conditions: secretin 10 nM, 12 hr
Source text: Cholangiocytes were obtained by immunoaffinity separation as described herein above, using a monoclonal antibody (a gift from Dr. R. Faris, Brown University, Providence, R.I.) that is expressed by all intrahepatic cholangiocytes. HSCs from the selected groups of mice were isolated by LCM as described previously in Wu, N et al., The secretin/secretin receptor axis modulates liver fibrosis through changes in transforming growth factor-beta1 biliary secretion in mice, Hepatology (Baltimore, Md.) 64(3):865-879 (2016). Briefly, frozen liver sections (n=3, 10 μm thick) were incubated overnight with an anti-desmin (a marker of stellate cells) antibody. Then, desmin-positive cells were dissected from the slides using a LCM system Leica LMD7000 (Buffalo Grove, Ill.) and were collected before RNA extraction with the Arcturus PicoPure RNA isolation kit (Thermo Fisher Scientific CO, Mountain View, Calif.). The in vitro studies were performed in: (I) immortalized murine cholangiocyte lines derived from large cholangiocytes lining large ducts (IMCLs); and (ii) human hepatic stellate cell lines (HHSteCs; ScienCell Research Laboratories, Carlsbad, Calif.).
WT mice were treated for 1 wk with saline or secretin (Sct; 2.5 nmoles/kg body weight per day) before collecting cholangiocytes, HSCs and cholangiocyte supernatants. The levels of TGF-β1 were measured in short-term (6-hour) cultures of cholangiocytes by ELISA kits. Subsequently, we measured: (i) liver fibrosis by immunofluorescence for Col1a1 in liver sections and real-time PCR for TGF-β1, TFG-β1R, Col1a1, α-SMA and Fn1 in cholangiocytes and HSCs; and (ii) cellular senescence by immunofluorescence in liver sections for p16 and real-time PCR for p16 and p21 in cholangiocytes and HSC.
Biliary supernatants were obtained from normal and BDL WT mice and Sct^−/−, SR^−/− and Sct^−/−/SR^−/− BDL mice as well as normal WT mice treated with saline or secretin. HHSteCs were incubated with the aforementioned biliary supernatants (containing different levels of TGF-β1) for 24 hr (in the absence or presence of LY2109761) before measuring the expression of senescence and fibrosis genes by real-time PCR. Furthermore, HHSteCs were incubated with the supernatant of large IMCLs treated for 0.2% bovine serum albumin (basal) or secretin (10 nM) with/without LY2109761 for 6 hr before measuring the mRNA expression of fibrosis and senescence genes. To provide direct evidence that TGF-β1 directly modulates fibrosis and senescence of IMCLs and HHSteCs, these cells were stimulated with TGF-β1 (10 nM) for 24 hr before measuring the expression of PCNA as well as fibrosis and senescence genes by real-time PCR.

[1] = dnTGF-βRII 32/34 wk, vs saline treated

## secretin [Sct]
dnTGF-βRII mice; dnTGF-βRII 32/34 wk
  biliary senescence (p16, p18, p21, CCL2): reduced
  cholangiocyte apoptosis (TUNEL): reduced
  collagen content / deposition (Sirius Red), hepatic fibrosis: decreased; also recorded: reduced
dnTGF-βRII mice; [1]
  Sct, SR, CFTR and AE2 expression: increased expression
  intrahepatic bile duct mass (IBDM, CK-19): increased
dnTGF-βRII mice; dnTGF-βRII 32/34 wk, vs saline treated, listed as secretin
  intrahepatic bile duct mass (IBDM, CK-19): increased biliary mass in the late stage PBC mice back to normal levels
dnTGF-βRII mice; dnTGF-βRII 32/34 wk, listed as secretin
  collagen content / deposition (Sirius Red), hepatic fibrosis: significantly reduced
dnTGF-βRII mice; dnTGF-βRII 34 wk
  HSC activation (SYP-9): reduced
  biliary growth / cholangiocyte proliferation: increased
  liver damage (H&E): ameliorate; also recorded: reduced
  secretin levels (serum; serum and bile): increased
dnTGF-βRII mice; dnTGFβRII 12 and 34 wk as printed
  Liver inflammation, Kupffer cell number: reduced
dnTGF-βRII mice; dnTGFβRII 34 wk
  TBA levels: reduced
dnTGF-βRII mice; late stage PBC model
  serum levels of ALP and γGT: reduced
Large IMCLs
  secretion of TGF-β1 and expression of fibrosis and senescence genes of large IMCLs: increased
